For one data set, the system named is HCV replicon. The data set is described as follows: IC50 assay with HCV luciferase replicon cell-line. It is filed as cell-based. To be noted: Hepatitis C virus, Huh-7; Huh7 cell line containing HCV replicon with luciferase reporter, 48 h. An excerpt: Plating Cells: The cells used in these assays were a liver-derived Huh7 cell line containing an HCV replicon bearing a luciferase reporter gene. The Huh7 cell-line can be obtained from various sources including the Japanese Collection of Research Bioresources (JCRB), Osaka, Japan. The Huh7 cell line containing an HCV replicon bearing a luciferase reporter gene can be prepared essentially as described by Vrolijk J M, et al. (J Virol Methods. (2003) 110(2):201-9). Cells were passaged when they reached about 70% confluency.
These 0.5 mM dilutions were then used to further serially dilute the compounds in DMEM+2% FBS+0.5% DMSO to keep the concentration of DMSO in each condition identical.
The Glo Lysis Buffer and the Bright Glow reagent was allowed to warm to room temperature for about 30 min in the dark. […] The media was removed from cells, and the cells were gently washed with about 100 μL of phosphate buffered saline (PBS). […] It should be noted that luciferin has a half-life of approximately 30 min at room temperature after it is added to the plate. […] The data was saved and used to calculate the percent inhibition of luciferase activity at each drug concentration. […] Curve equation: (m1−m2)/(1+(x/m3)^m4); m1=100; m2=0.01; m3=0.01; m4=0.01; the equation is: […]

Another data set has as its system Huh7 cells. The data set is described as follows: TC50 MTS cell viability assay with Huh7 cells (48 h). It is filed as cell-based. To be noted: Homo sapiens, Huh-7. An excerpt: Plating Cells: Huh7 cells (a hepatocellular carcinoma cell-line; these cells can be obtained from the Japanese Collection of Research Bioresources (JCRB), Osaka, Japan) were used to determine the TC50 for representative compounds of the present invention. Briefly, Huh7 cells were passaged when they reached about 70% confluency. The cells were counted using a hemocytometer following dilution of the cells to about 0.5×10^5 cells per mL in DMEM with 10% fetal bovine serum (FBS). The cells were plated in a clear 96-well plate (about 5,000 cells in 100 μL per well). The cells were allowed to attach for about 24 hours at 37° C.
Treating of the cells: The DMEM media without phenol red containing 2% FBS was pre-warmed to 37° C. […] Following dilution, the final DMSO concentration was about 0.5% (v/v). […] The plates were then returned to the incubator and incubated with the cells for 48 h at 37° C.
(§1) The 96-well plate with cells incubated with test compound was removed from the 37° C. incubator. The appropriate amounts of the MTS and PMS reagents were removed from the kit and mixed well. The reagents were maintained in the dark due to their light sensitivity. […] The solutions were mixed completely in the wells prior to each reading.

For another data set, the system named is BxPC3. The data set is described as follows: TC50 assay in different human cell lines (96 h), BxPC3. In kind it is cell-based. The note with it: BXPC-3, about 96 h, MTS assay. How it is done: as §1
(§2) Plating Cells: Huh7, HEPG2, HEK293, MCF-7, or BxPC3 cells (which can be obtained from American Type Culture Collection, ATCC) were passaged when they were about 70% confluent. […] The cells following passaging were allowed to attach for about 24 hours at 37° C.
(§3) The plates were then returned to the incubator, and cells incubated for about 96 h at 37° C.
(§4) MTS Assay: Assay was carried out as described above.

The next data set concerns Huh7. The data set is described as follows: TC50 assay in different human cell lines (96 h), Huh7. It is filed as cell-based. The note with it: Huh-7, about 96 h, MTS assay. How it is done:
as §1, §2, §3, §4

Data set [1] in a line: Stability test at different pH conditions (HPLC). In kind it is physicochemical. How it is done: HPLC analysis: 100 μl of the incubated solution was loaded onto a Vydac C18 analytical column 4.6/250, and the mobile phase run at 1 mL/min water with the following procedures: a. Inject 100 μl the incubated solution; b. Water for 5 minutes at 1 ml/min; c. 0-100% acetonitrile over 30 minutes; d. Back to 100% water.
Analysis: Standard HPLC analysis software was used to quantitate the area under each peak. Degradation peaks were quantitated as a percentage of the peak of the same amount of control sample (no heat treatment).

The test system of the next data set is MCF-7. The data set is described as follows: TC50 assay in different human cell lines (96 h), MCF-7. It is filed as cell-based. The note with it: MCF7, about 96 h, MTS assay. How it is done:
as §1, §2, §3, §4

Data set [2] can be described thus: TC50 assay in different human cell lines (96 h), HEK293. In kind it is cell-based. To be noted: HEK293 cells, about 96 h, MTS assay. How it is done:
as §1, §2, §3, §4

The test system of a further data set is HEPG2. The data set is described as follows: TC50 assay in different human cell lines (96 h), HEPG2. It is filed as cell-based. The note with it: about 96 h, MTS assay. How it is done:
as §1, §2, §3, §4

Data set [3] can be described thus: In vivo pharmacokinetic assessment (LC-MS/MS, plasma and liver). To be noted: mice, oral, plasma and liver samples. How it is done: All pharmacokinetic studies were performed with CD-1 ICR mice (female, 4-6 week old; 20-30 gram body weight), and three mice were used at each dose level and at each time point for each compound tested. […] Tetrahydrouridine (THU) was immediately added to plasma samples at a final concentration of 25 μg/mL to prevent deamination of dFdC after collection, and the samples were subsequently flash-frozen and stored at −80° C. until analysis. Approximately 200-300 mg of each mouse liver was dissected and homogenized in 150 μL of phosphate buffered saline (PBS) containing 25 μg/mL THU, resulting in 2 mg liver/μL saline homogenate. These liver homogenates were also flash-frozen and stored at −80° C. until analysis. Equivalent amounts of blood plasma and liver tissue were also collected from untreated mice and used to prepare calibration standards and quality controls. An LC-MS/MS assay was utilized to simultaneously quantify the concentrations of compound 1, dFdC and dFdU in each of the plasma and liver samples.

A further data set concerns RPK9 cells. The data set is described as follows: cells. To be noted: Homo sapiens, 48 h, read-out: TC50 (μM), 48 h treatment. How it is done: (§5) Plating Cells: PK9 or RPK9 cells were seeded in 96-well plates at a density of 2,500 cells/well or 2,500 cells/well, respectively, and the plates were incubated at 37° C. for 24 h to allow for cell attachment.
(§6) Treating with Control & Compound 1: The cells were treated with each compound at final concentrations ranging from 500 μM to 0 μM in triplicate in media containing 2% FBS and 0.5% DMSO.
(§7) The RPK9 cells are described in Saiki, T., et al. (2012) Biochim. Biophys. Res. Commun. 421, 98-104).

The test system of data set [4] is PK9 cells. The data set is described as follows: TC50 assay with inhibition of ENT1, PK9 cells. It is filed as cell-based. To be noted: Homo sapiens, PK9, 48 h, PK9 cells (48 h). How it is done:
Plating Cells: Huh7 cells or PK9 cells were seeded in 96-well plates at a density of 5,000 cells/well or 2,500 cells/well, respectively, and the plates were incubated at 37° C. for 24 h to allow for cell attachment.
Treatment with equilibrative nucleoside transporter 1 (ENT1) Inhibitor: The media was then removed from the plates and replaced with media containing 2% FBS, 0.5% DMSO, and either 10 μM dipyramidole or 10 μM S-(4-nitrobenzyl)-6-thioinosine (NBTI).
Treating with Control & Compound 1: After incubation with the ENT1 inhibitor, the cells were treated with each compound at final concentrations ranging from 500 μM to 0 μM in triplicate in media containing 2% FBS, 0.5% DMSO, and either 10 μM dipyridamole or 10 μM NBTI.

Data set [5] concerns PK9 cells. The data set is described as follows: TC50 assay, effect of deficient deoxycytidine kinase activity, PK9 cells. In kind it is cell-based. The note with it: Homo sapiens, 48 h, read-out: TC50 (μM), 48 h treatment. How it is done:
as §5, §6, §7

The values below come from patent publication US10000521B2 (priority 2013, dated 2018).

Where only a bound is given, the exact number is not on record here.

`O=C(Nc1ccn(C2O[C@H](CO)[C@@H](O)C2(F)F)c(=O)n1)c1cc2c(cc1[N+](=O)[O-])OCO2` (stereo in doubt) [Compound 9]: in the data set with HCV replicon, the IC50 was found to be 0.047 ± 0.004 µM. Further, in the data set with Huh7 cells, the CC50 was above 500 µM.
Turning to `O=C(Nc1ccn(C2O[C@H](CO)[C@@H](O)C2(F)F)c(=O)n1)c1ccc2c(c1)OCCO2` (stereo partly drawn) [Compound 2, N-(1-((4R,5R)-3,3-difluoro-4-hydroxy-5-(hydroxymethyl)tetrahydrofuran-2-yl)-2-oxo-1,2-dihydropyrimidin-4-yl)-2,3-dihydrobenzo[b][1,4]dioxine-6-carboxamide], the CC50 with BxPC3 worked out at 1.15 µM; in the data set with Huh7, 3.34 µM; with MCF-7, 1.44 µM; in the data set with HEPG2, 1.13 µM; with Huh7 cells it was 855 ± 166 µM. In addition, the “Compound remaining (%)” value came to 100% in [1] (Pretreatment); 71% in [1] (pH 1, 40° C., 4 h); 100% in data set [1] (pH 2, 40° C., 4 h); 100% in data set [1] (pH 4, 40° C., 4 h); 100% in data set [1] (pH 6, 40° C., 4 h); 100% in data set [1] (pH 8, 40° C., 4 h). The same compound had an IC50 in the data set with HCV replicon of 0.127 ± 0.009 µM. Further, the CC50 at 96 h in data set [2] amounted to 5.61 µM.
In the data set on HCV replicon, `O=C(Nc1ccn([C@@H]2O[C@H](CO)C(O)C2(F)F)c(=O)n1)c1ccc2c(c1)OCCCO2` (some centres unmarked) [Compound 3] had an IC50 of 0.092 ± 0.008 µM. This compound came in with a CC50 in the data set with Huh7 cells of 881 ± 287 µM.
In turn, `CC1(C)Cc2ccc(C(=O)Nc3ccn([C@@H]4O[C@H](CO)C(O)C4(F)F)c(=O)n3)cc2O1` (some centres unmarked) [Compound 4] yielded an IC50 with HCV replicon of 0.177 ± 0.045 µM. The compound further yielded a CC50 with Huh7 cells of 1160 ± 204 µM.
As to `O=C(Nc1ccn([C@@H]2O[C@H](CO)C(O)C2(F)F)c(=O)n1)c1ccc2c(c1)CCO2` (some centres unmarked) [Compound 5], the midpoint of inhibition in the data set with HCV replicon, the IC50, lay at 0.145 ± 0.017 µM. Moreover, the CC50 with Huh7 cells was 954 ± 247 µM.
In turn, `O=C(Nc1ccn([C@@H]2O[C@H](CO)C(O)C2(F)F)c(=O)n1)c1c(Br)ccc2c1OCO2` (some centres unmarked) [Compound 6] registered an IC50 in the data set with HCV replicon of 0.34 ± 0.045 µM. This compound yielded a CC50 with Huh7 cells of 2210 ± 821 µM.
`O=C(Nc1ccn([C@@H]2O[C@H](CO)C(O)C2(F)F)c(=O)n1)c1ccc2c(c1)OC(F)(F)O2` (some centres unmarked) [Compound 7] yielded an IC50 with HCV replicon of 0.046 ± 0.027 µM. Moreover, the CC50 with Huh7 cells amounted to 188 ± 50 µM.
For `Cc1cc2c(cc1C(=O)Nc1ccn([C@@H]3O[C@H](CO)C(O)C3(F)F)c(=O)n1)OCCO2` (some centres unmarked) [Compound 8], half-maximal inhibition in the data set with HCV replicon (IC50) required 1.69 ± 1.06 µM. The CC50 in the data set with Huh7 cells came to 626 ± 191 µM.
Take `Nc1ccn([C@@H]2O[C@H](CO)[C@@H](O)C2(F)F)c(=O)n1` [Gem, 4-amino-1-((2R,4R,5R)-3,3-difluoro-4-hydroxy-5-(hydroxymethyl)tetrahydrofuran-2-yl)pyrimidin-2(1H)-one, reference compound]: the CC50 in the data set with BxPC3 is 0.0029 µM; in the data set on Huh7, 3.41 µM; in the data set with MCF-7 it was 0.067 µM; with HEPG2, 0.311 µM; in the data set on RPK9 cells it was above 500 µM; in the data set with PK9 cells [4] (10 μM NBTI) it was 1.92 ± 0.78 µM. Also, the CC50 in the data set on PK9 cells [4] (10 μM dipyridamole) came out at 193 ± 20 µM; in the data set with PK9 cells [4] (ENT1 inhibitor: None), 0.095 ± 0.035 µM; in the data set with PK9 cells [5] it was 0.095 ± 0.035 µM. In data set [3], the “first-pass metabolism to inactive metabolite dFdU” value is “extensive first-pass metabolism”. The same compound registered an IC50 with HCV replicon of 0.058 ± 0.006 µM.
